According to ChEMBL document CHEMBL4265897, “Discovery of benzothiazole amides as potent antimycobacterial agents” (Bioorg Med Chem Lett, 2018):
Values after ≈ are worked out from the molar mass of the structure shown. Active and inactive are the calls of the source. The rule behind the calls is not given here.

Assays:
[1] = test system: Mycobacteroides abscessus; assay: Antimycobacterial activity against Mycobacterium abscessus ATCC 19977 by CLSI method; type: functional
Mycobacterium avium = assay: Antimycobacterial activity against Mycobacterium avium 101 by CLSI method; type: functional
[2] = test system: Mycobacterium intracellulare; assay: Antimycobacterial activity against Mycobacterium intracellulare 1956 by CLSI method; type: functional
[3] = test system: Mycobacterium tuberculosis; assay: Antimycobacterial activity against Mycobacterium tuberculosis H37Rv MC2 6206 by CLSI method; type: functional
[4] = test system: Mycobacteroides abscessus; assay: Antimycobacterial activity against Mycobacterium abscessus 1 by CLSI method; type: functional
[5] = test system: Mycobacteroides abscessus; assay: Antimycobacterial activity against Mycobacterium abscessus 21 by CLSI method; type: functional
[6] = test system: Mycobacteroides abscessus; assay: Antimycobacterial activity against Mycobacterium abscessus 79 by CLSI method; type: functional
[7] = test system: Mycobacteroides abscessus; assay: Antimycobacterial activity against Mycobacterium abscessus 103 by CLSI method; type: functional
[8] = test system: Mycobacteroides abscessus; assay: Antimycobacterial activity against Mycobacterium massiliense 119 by CLSI method; type: functional, Mycobacterium abscessus subsp. massiliense
Mycobacteroides chelonae = assay: Antimycobacterial activity against Mycobacterium chelonae 93 by CLSI method; type: functional
[9] = test system: Mycolicibacterium fortuitum; assay: Antimycobacterial activity against Mycobacterium fortuitum 41 by CLSI method; type: functional
[10] = test system: Mycolicibacterium peregrinum; assay: Antimycobacterial activity against Mycobacterium peregrinum ATCC 700686 by CLSI method; type: functional
[11] = test system: Mycobacteroides abscessus; assay: Antimycobacterial activity against Mycobacterium abscessus assessed as reduction in viable colony forming unit after 5 days by time-kill assay relative to control; type: functional
[12] = test system: Mycobacteroides abscessus; assay: Bacteriostatic activity against Mycobacterium abscessus assessed as reduction in viable colony forming unit after 3 days by time-kill assay; type: functional, organism-based
Cytochrome P450 2B6 = biological target: T1, Cytochrome P450 2B6 (Homo sapiens, UniProt P20813); assay: Inhibition of CYP2B6 (unknown origin); type: ADME
T1 sequence (P20813 whole entry): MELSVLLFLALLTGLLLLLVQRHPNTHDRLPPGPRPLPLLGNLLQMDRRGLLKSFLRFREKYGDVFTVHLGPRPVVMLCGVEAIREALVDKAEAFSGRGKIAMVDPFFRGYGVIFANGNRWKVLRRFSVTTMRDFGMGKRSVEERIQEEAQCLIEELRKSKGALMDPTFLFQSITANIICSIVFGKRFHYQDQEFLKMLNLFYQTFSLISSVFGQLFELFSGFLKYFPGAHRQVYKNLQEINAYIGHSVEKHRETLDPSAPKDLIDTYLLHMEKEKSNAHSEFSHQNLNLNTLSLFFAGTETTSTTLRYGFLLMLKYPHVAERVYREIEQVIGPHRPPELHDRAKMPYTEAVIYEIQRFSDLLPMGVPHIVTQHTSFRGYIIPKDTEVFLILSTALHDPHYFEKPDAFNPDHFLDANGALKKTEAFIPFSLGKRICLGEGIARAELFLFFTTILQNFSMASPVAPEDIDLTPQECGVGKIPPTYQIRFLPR

Cytochrome P450 2C8 = biological target: T2, Cytochrome P450 2C8 (Homo sapiens, UniProt P10632); assay: Inhibition of CYP2C8 (unknown origin); type: ADME
T2 sequence (P10632 whole entry): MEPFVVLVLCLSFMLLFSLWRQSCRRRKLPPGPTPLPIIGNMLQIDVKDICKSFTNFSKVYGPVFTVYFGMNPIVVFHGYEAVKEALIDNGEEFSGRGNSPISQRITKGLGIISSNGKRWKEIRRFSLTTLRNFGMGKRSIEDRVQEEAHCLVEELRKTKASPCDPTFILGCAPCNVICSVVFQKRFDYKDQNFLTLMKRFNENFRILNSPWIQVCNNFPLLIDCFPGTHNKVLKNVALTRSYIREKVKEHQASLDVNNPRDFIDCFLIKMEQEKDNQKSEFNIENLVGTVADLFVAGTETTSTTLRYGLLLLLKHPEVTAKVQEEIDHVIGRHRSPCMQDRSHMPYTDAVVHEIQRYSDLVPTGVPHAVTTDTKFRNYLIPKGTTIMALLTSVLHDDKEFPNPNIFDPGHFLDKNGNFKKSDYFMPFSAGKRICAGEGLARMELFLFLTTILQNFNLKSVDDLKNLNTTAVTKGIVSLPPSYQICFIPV

Cytochrome P450 2C9 = Cytochrome P450 2C9 (Homo sapiens, UniProt P11712); assay: Inhibition of CYP2C9 (unknown origin); type: ADME
Sequence of Cytochrome P450 2C9 (P11712 whole entry): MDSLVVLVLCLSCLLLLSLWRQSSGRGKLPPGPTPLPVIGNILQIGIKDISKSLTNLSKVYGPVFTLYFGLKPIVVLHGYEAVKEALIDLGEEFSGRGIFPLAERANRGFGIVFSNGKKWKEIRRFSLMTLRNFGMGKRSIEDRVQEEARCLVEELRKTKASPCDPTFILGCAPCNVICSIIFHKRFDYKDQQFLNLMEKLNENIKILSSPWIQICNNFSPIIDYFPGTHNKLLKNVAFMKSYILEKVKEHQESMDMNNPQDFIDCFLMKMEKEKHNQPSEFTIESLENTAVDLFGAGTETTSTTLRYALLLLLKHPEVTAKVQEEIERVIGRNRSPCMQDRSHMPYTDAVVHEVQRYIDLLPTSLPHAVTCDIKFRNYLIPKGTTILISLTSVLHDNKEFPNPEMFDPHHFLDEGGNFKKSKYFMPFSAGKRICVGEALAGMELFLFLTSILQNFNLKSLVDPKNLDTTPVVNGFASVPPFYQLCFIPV

Cytochrome P450 2C19 = Cytochrome P450 2C19 (Homo sapiens, UniProt P33261); assay: Inhibition of CYP2C19 (unknown origin); type: ADME
Sequence of Cytochrome P450 2C19 (P33261 whole entry): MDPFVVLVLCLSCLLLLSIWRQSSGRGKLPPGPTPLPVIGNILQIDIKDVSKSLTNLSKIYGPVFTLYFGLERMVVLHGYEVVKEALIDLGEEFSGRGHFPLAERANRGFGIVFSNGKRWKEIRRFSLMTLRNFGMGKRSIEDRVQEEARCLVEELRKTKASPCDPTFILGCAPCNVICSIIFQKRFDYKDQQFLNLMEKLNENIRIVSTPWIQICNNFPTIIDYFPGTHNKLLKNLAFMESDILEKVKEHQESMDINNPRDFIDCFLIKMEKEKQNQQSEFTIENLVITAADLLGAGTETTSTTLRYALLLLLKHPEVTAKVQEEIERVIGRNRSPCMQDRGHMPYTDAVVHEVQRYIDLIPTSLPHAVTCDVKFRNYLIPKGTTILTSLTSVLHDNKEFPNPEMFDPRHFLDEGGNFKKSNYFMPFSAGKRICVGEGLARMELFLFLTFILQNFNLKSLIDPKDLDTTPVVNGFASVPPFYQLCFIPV

Cytochrome P450 2D6 = Cytochrome P450 2D6 (Homo sapiens, UniProt P10635); assay: Inhibition of CYP2D6 (unknown origin); type: ADME
Sequence of Cytochrome P450 2D6 (P10635 whole entry): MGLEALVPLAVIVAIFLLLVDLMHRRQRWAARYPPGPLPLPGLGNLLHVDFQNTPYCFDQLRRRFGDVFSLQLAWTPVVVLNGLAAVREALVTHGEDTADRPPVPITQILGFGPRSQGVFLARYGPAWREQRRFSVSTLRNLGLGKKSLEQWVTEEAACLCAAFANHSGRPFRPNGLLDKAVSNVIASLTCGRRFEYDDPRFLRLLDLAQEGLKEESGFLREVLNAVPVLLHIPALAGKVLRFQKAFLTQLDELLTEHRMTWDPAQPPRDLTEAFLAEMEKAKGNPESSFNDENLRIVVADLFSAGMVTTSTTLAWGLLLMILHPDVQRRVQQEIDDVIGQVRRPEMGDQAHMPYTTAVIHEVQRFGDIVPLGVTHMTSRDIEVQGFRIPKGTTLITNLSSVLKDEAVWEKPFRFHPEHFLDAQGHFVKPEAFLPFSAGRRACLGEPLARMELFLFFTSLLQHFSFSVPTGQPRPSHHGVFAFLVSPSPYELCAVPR

Cytochrome P450 3A4 [13] = biological target: T3, Cytochrome P450 3A4 (Homo sapiens, UniProt P08684); assay: Inhibition of CYP3A4 (unknown origin) using midazolam as substrate; type: ADME
T3 sequence (P08684 whole entry): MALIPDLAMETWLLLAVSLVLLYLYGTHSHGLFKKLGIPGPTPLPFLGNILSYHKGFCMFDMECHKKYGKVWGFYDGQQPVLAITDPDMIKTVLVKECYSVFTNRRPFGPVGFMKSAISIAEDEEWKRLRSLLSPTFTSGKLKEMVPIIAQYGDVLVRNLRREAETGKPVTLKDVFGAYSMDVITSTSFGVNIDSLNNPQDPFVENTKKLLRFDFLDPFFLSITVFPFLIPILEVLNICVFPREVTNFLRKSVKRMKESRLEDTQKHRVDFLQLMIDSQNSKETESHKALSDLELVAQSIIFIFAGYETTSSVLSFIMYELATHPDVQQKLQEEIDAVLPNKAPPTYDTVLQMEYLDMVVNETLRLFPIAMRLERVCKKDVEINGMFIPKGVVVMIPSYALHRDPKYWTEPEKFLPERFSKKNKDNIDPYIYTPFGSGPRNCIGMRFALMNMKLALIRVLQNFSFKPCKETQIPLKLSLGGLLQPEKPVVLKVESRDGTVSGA

Cytochrome P450 3A4 [14] = biological target: T3, Cytochrome P450 3A4; assay: Inhibition of CYP3A4 (unknown origin) using testosterone as substrate; type: ADME
[15] = Protein binding in human serum; type: ADME, cell-free; settings: read-out: PB
[16] = Oral bioavailability in mouse at 100 mg/kg; type: ADME, organism-based; settings: in vivo
[17] = Clearance in mouse plasma at 10 mg/kg, iv; type: ADME, organism-based
RBCs = assay: Hemolytic activity in RBC (unknown origin) at 128 ug/ml; type: ADME, cell-based; settings: erythrocyte
[18] = Solubility of the compound; type: physicochemical
CYP2B6 = biological target: T4, CYP2B6 (Homo sapiens, UniProt P20813); assay: Inhibition of CYP2B6 (unknown origin) at 10 uM; type: ADME
T4 sequence (P20813 whole entry): T1 sequence (P20813 whole entry)

CYP3A4 = CYP3A4 (Homo sapiens, UniProt P08684); assay: Inhibition of CYP3A4 (unknown origin) at 10 uM; type: ADME
Sequence of CYP3A4 (P08684 whole entry): as above

HepG2 = assay: Cytotoxicity against human HepG2 cells; type: cell-based
Mus musculus = assay: Toxicity in mouse assessed as abnormal behavior at 100 to 300 mg/kg, po administered as single dose; type: organism-based; settings: in vivo

SMILES	MIC (Mycobacterium avium)	MIC [2]	MIC [3]	MIC [4]	MIC [5]	MIC [6]	MIC [7]	MIC [8]	MIC (Mycobacteroides chelonae)	MIC [9]	MIC [10]	IC50 (Cytochrome P450 2B6)	IC50 (Cytochrome P450 2C8)	IC50 (Cytochrome P450 2C9)	IC50 (Cytochrome P450 2C19)	IC50 (Cytochrome P450 2D6)	IC50 (Cytochrome P450 3A4 [13])	IC50 (Cytochrome P450 3A4 [14])	fraction unbound [15]	Activity (RBCs)	also measured
CC12CC3CC(C)(C1)CC(C(=O)Nc1nc4ccc(OC(F)(F)F)cc4s1)(C3)C2	2 µg/mL (≈ 4.71 µM)	1 µg/mL (≈ 2.36 µM)	1 µg/mL (≈ 2.36 µM)	0.25 µg/mL (≈ 0.589 µM)	0.25 µg/mL (≈ 0.589 µM)	0.25 µg/mL (≈ 0.589 µM)	0.25 µg/mL (≈ 0.589 µM)	0.25 µg/mL (≈ 0.589 µM)	0.25 µg/mL (≈ 0.589 µM)	0.25 µg/mL (≈ 0.589 µM)	0.12 µg/mL (≈ 0.283 µM)										MIC [1]: 0.25 µg/mL (≈ 0.589 µM); Activity [11]: 2 deltalog10CFU; Activity [12]: Active
O=C(Nc1nc2ccc(OC(F)(F)F)cc2s1)C1CCCCC1	> 64 µg/mL	> 64 µg/mL	64 µg/mL (≈ 186 µM)	> 64 µg/mL	16 µg/mL (≈ 46.5 µM)	> 64 µg/mL	> 64 µg/mL	> 64 µg/mL	> 64 µg/mL	> 64 µg/mL	> 64 µg/mL										MIC [1]: 32 µg/mL (≈ 92.9 µM)
CC1CC(C(=O)Nc2nc3ccc(Br)cc3s2)CC(C)(C)C1 (stereo unspecified)	> 64 µg/mL	> 64 µg/mL	2 µg/mL (≈ 5.24 µM)	1 µg/mL (≈ 2.62 µM)	0.5 µg/mL (≈ 1.31 µM)	0.5 µg/mL (≈ 1.31 µM)	0.25 µg/mL (≈ 0.656 µM)	0.5 µg/mL (≈ 1.31 µM)	0.5 µg/mL (≈ 1.31 µM)	0.5 µg/mL (≈ 1.31 µM)	0.12 µg/mL (≈ 0.315 µM)	12.8 µM	> 20 µM	> 20 µM	12.7 µM	1.6 µM	> 20 µM	> 20 µM	< 0.01	Non-Toxic	bioavailability [16]: 75%; clearance [17]: 25 mL/min/kg; solubility [18]: Insoluble
CC12CCCC(C(=O)Nc3nc4cc(Cl)cc(Cl)c4s3)(CCC1)C2	2 µg/mL (≈ 5.22 µM)	2 µg/mL (≈ 5.22 µM)	≤ 0.12 µg/mL	0.06 µg/mL (≈ 0.157 µM)	0.03 µg/mL (≈ 0.0783 µM)	0.03 µg/mL (≈ 0.0783 µM)	0.03 µg/mL (≈ 0.0783 µM)	0.03 µg/mL (≈ 0.0783 µM)	0.03 µg/mL (≈ 0.0783 µM)	0.06 µg/mL (≈ 0.157 µM)	0.03 µg/mL (≈ 0.0783 µM)										inhibition at 10 µM (CYP2B6): > 50%; inhibition at 10 µM (CYP3A4): > 50%
CC1CC(C(=O)Nc2nc3ccc(Cl)cc3s2)CC(C)(C)C1 (stereo unspecified)	16 µg/mL (≈ 47.5 µM)	4 µg/mL (≈ 11.9 µM)	4 µg/mL (≈ 11.9 µM)	0.5 µg/mL (≈ 1.48 µM)	0.25 µg/mL (≈ 0.742 µM)	0.25 µg/mL (≈ 0.742 µM)	0.25 µg/mL (≈ 0.742 µM)	0.5 µg/mL (≈ 1.48 µM)	0.25 µg/mL (≈ 0.742 µM)	0.25 µg/mL (≈ 0.742 µM)	0.12 µg/mL (≈ 0.356 µM)	14.9 µM	> 20 µM	> 20 µM	15.5 µM	0.2 µM	> 20 µM	> 20 µM	< 0.01	Non-Toxic	solubility [18]: Insoluble
CC1CC(C(=O)Nc2nc3ccc(OC(F)(F)F)cc3s2)CC(C)(C)C1 (stereo unspecified)	> 64 µg/mL	> 64 µg/mL		0.5 µg/mL (≈ 1.29 µM)	0.25 µg/mL (≈ 0.647 µM)	0.25 µg/mL (≈ 0.647 µM)	0.25 µg/mL (≈ 0.647 µM)	0.25 µg/mL (≈ 0.647 µM)	0.12 µg/mL (≈ 0.311 µM)	1 µg/mL (≈ 2.59 µM)	0.25 µg/mL (≈ 0.647 µM)	> 20 µM	> 20 µM	> 20 µM	> 20 µM	> 20 µM	> 20 µM	> 20 µM	< 0.01	Non-Toxic	IC50 (HepG2): > 100 µM; solubility [18]: Insoluble
CC1CC(C(=O)Nc2nc3c(F)cc(F)cc3s2)CC(C)(C)C1 (stereo unspecified)	64 µg/mL (≈ 189 µM)	4 µg/mL (≈ 11.8 µM)		1 µg/mL (≈ 2.95 µM)	0.5 µg/mL (≈ 1.48 µM)	0.5 µg/mL (≈ 1.48 µM)	0.5 µg/mL (≈ 1.48 µM)	0.5 µg/mL (≈ 1.48 µM)	0.25 µg/mL (≈ 0.739 µM)	0.25 µg/mL (≈ 0.739 µM)	0.2 µg/mL (≈ 0.591 µM)										Activity (Mus musculus): Non-Toxic
CC12CCCC(C(=O)Nc3nc4ccc(OC(F)(F)F)cc4s3)(CCC1)C2	2 µg/mL (≈ 5.02 µM)	2 µg/mL (≈ 5.02 µM)	1 µg/mL (≈ 2.51 µM)	0.06 µg/mL (≈ 0.151 µM)	0.06 µg/mL (≈ 0.151 µM)	0.06 µg/mL (≈ 0.151 µM)	0.12 µg/mL (≈ 0.301 µM)	0.06 µg/mL (≈ 0.151 µM)	0.06 µg/mL (≈ 0.151 µM)	0.5 µg/mL (≈ 1.25 µM)	0.06 µg/mL (≈ 0.151 µM)										inhibition at 10 µM (CYP2B6): > 50%; inhibition at 10 µM (CYP3A4): > 50%
CC1CC(C)CC(C(=O)Nc2nc3ccc(C(F)(F)F)cc3s2)C1 (stereo unspecified)	> 64 µg/mL	> 64 µg/mL	4 µg/mL (≈ 11.2 µM)	2 µg/mL (≈ 5.61 µM)	1 µg/mL (≈ 2.81 µM)	2 µg/mL (≈ 5.61 µM)	0.25 µg/mL (≈ 0.701 µM)	0.5 µg/mL (≈ 1.4 µM)	1 µg/mL (≈ 2.81 µM)	1 µg/mL (≈ 2.81 µM)	0.25 µg/mL (≈ 0.701 µM)	> 20 µM	> 20 µM	> 20 µM	> 20 µM	1.4 µM	> 20 µM	> 20 µM	< 0.01	Non-Toxic	bioavailability [16]: 53%; clearance [17]: 28.3 mL/min/kg; solubility [18]: Insoluble
